Measurements reported in patent publication US20030176406A1, “Polycaprolactone-b-poly (ethylene oxide) copolymer non-cross-linked micelles as a delivery vehicle for steroid” (McGill University, priority 1999, published 2003).

Assay: Kinetic release of DHT from PCL20-b-PEO44 micelles (dialysis method, PBS pH 7.4, 37° C.)
Assay type: physicochemical
Conditions: control solution (drug alone)
Experimental: To the dried micelles, 100 μL of phosphate buffer solution, PBS (pH 7.4) was added. To ensure that the micelles were well dispersed in PBS, the solutions were vortexed. The dispersed micelles were left to stand in a 37° C. warm room for 30 minutes. Once the micelle solution had reached 37° C., it was placed in a dialysis bag which was immersed in a large vial containing warmed PBS (10 mL PBS, pH=7.4, 37° C.). […] The aliquot was dispersed in 4 mL of scintillation cocktail and then counted. Following the removal of each 100 uL aliquot, a 100 uL aliquot of fresh PBS was added.
The dialysis method was used to study the release of DHT from two micelle solutions which differed in the amount of DHT that they contained. The concentration of the solutions studied were 8 mM and 40 mM.

C[C@]12CCC(=O)C[C@@H]1CC[C@@H]1[C@@H]2CC[C@]2(C)[C@@H](O)CC[C@@H]12 [DHT, dihydrotestosterone]
time to complete release: 3 h
